According to PMC5581131, “The novel sphingosine-1-phosphate receptors antagonist AD2900 affects lymphocyte activation and inhibits T-cell entry into the lymph nodes” (Oncotarget, 2017):

Experiments:
[1] = tested on: CEM/C1; assay: XTT viability assay, CEM/C1; format: cell-based, human; details: 1-day treatment, compared with Jurkat (>10 μM)
Description: Figure 1 AD2900 inhibits human lymphocyte proliferation in allogeneic activation (A, B) The levels of proliferative response of human peripheral blood lymphocytes (PBMCs) after 1-day pretreatment with different concentrations of AD2900, AD2750, YZ138, YZ158, and YZ297 (A) or AD2900, FTY720, and SEW2871 (B) were tested by human allogeneic mixed lymphocyte reaction (MLR) assay, followed by a [3H] thymidine incorporation analysis. (C) Apoptosis of AD2900-treated activated PBMCs was tested by AnnexinV-propidium iodide (PI) FACS analysis following 1-day AD2900 pretreatment and MLR. All the samples were compared to the untreated PBMC control. (D) IFN-γ secretion from activated PBMCs was tested by ELISA following a 1-day AD2900 pretreatment in MLR. On the 5th day of hMLR, supernatants were collected and assayed for the level of IFN-γ. (E) Jurkat cell viability after a 1-day treatment with different concentrations of AD2900, FTY720, and SEW2871 was tested by XTT viability assay. (F) H9, CEM/C1, and Molt4 cell viability after a 1-day treatment with different concentrations of AD2900 was tested by XTT viability assay. Graphs summarize the results of at least three independent experiments. Results of Student’s t-test: *(P < 0.05, two-tailed test), ** (P < 0.01, two-tailed test), *** (P < 0.001, two-tailed test), **** (P < 0.0001, two-tailed test). […]

[2] = tested on: C57BL/6 mice; assay: T, B and NK cell populations in blood, spleen and lymph nodes, FACS; format: in vivo, mouse
Excerpt: S1P receptors are differentially expressed by distinct immune cell populations. Since AD2900 is an antagonist to all S1P receptors, we next evaluated its influence on the localization of different murine lymphocyte populations. To achieve this aim, we performed FACS analysis of the blood (Figure 5A), spleen (Figure 5B), and lymph node cells (Figure 5C) using antibodies against surface markers of T cells, B cells, and NK cells (TCR-β, CD19, and CD49b, respectively). […] The NK cell count was elevated by 55.7% (4.741 ± 0.8621 × 10^6 cells/ml) after a 7-day treatment with AD2900. […] The trend in the B-cell change was opposite to that in the T- and NK cell changes in the lymph nodes.
Figure 5 AD2900 treatment affects the distribution of T cells, B cells, and NK cells in blood, spleen, and peripheral lymph nodes C57BL/6 mice were orally administered with AD2900 or FTY720, as shown in Figure 4. Leukocytes from blood, spleen, and pLNs were collected and stained with TCR-β, CD19, and CD49b fluorescent antibodies and then analyzed by FACS analysis. The percentages of TCR-β+ T cells (left panel), CD19+ B cells (central panel), and CD49b+ NK cells (right panel) of the total leukocytes from blood (A), spleen (B), and pLNs (C) are shown. The results of T and B cells are from 2 days’ experiments. The results of NK cells are from 2 and 7 days’ experiments. All the significances are compared to untreated healthy mice. Results summarize three independent experiments. Results of Student’s t-test:*(P < 0.05, two-tailed test), ** (P < 0.01, two-tailed test), *** (P < 0.001, two-tailed test), **** (P < 0.0001, two-tailed test).
Murine lymphocytes: The phenotype of murine lymphocytes was analyzed by flow cytometry using anti-CD3e-FITC, anti-CD19-PB, anti-CCR7-APC, anti-CD44-FITC, anti-CD62L-APC, and anti-TCR-β-PB (Biolegend, CA, USA).
To eliminate the red blood cells, RBC lysis buffer (Beit Haemek, Israel) or BD FACS lysing solution (BD Biosciences, CA, USA) was added into murine blood and splenocyte samples. Flow cytometry was performed using the MACSQuant® Analyzer (Miltenyi Biotech, Germany), and the data were analyzed using FCS Express V3 software.
C57BL/6 female mice aged 7–8 weeks were obtained from Harlan Laboratories (Jerusalem, Israel). The animal study was conducted under appropriate conditions and was approved by the Institutional Animal Care and Use Committee of the Hebrew University of Jerusalem in accordance with the national laws and regulations for the protection of animals. AD2900 was dissolved in 10% BSA (MP Biomedicals, CA, USA) in DDW at 1 mg/ml and then further diluted in 200 ml water to get final concentrations at 1.8, 2.7, or 3.6 mg/l. AD2900 and FTY720 were supplied ad libitum to the mice for 2 days or 7 days. At the end of the experiment, blood was collected, and the mice were sacrificed and tissues (lymph nodes and spleen) were harvested.

CCCCCCCCCCCCCCCCNC(CO)(CO)CO [AD2900]
cell viability, CEM/C1 [1]: reduced cell viability could be detected even at lower concentrations | T cells in the blood, value in parentheses ([2]; 1.8 mg/l, 2-day treatment): 0.7488 ± 0.1641 × 10^6 cells/ml | increase of average count of T cells in the blood ([2]; 1.8 mg/l, 2-day treatment): 81.9% | T cells in the lymph nodes, value in parentheses ([2]; 2-day treatment): 0.7411 ± 0.2217 × 10^5 cells/ml | T cells in the spleen, value in parentheses ([2]; 2-day treatment): 11.79 ± 3.64 × 10^6 cells/ml | decrease of T-cell average count in the lymph nodes ([2]; 2-day treatment): 30% | increase of average count of T cells in the spleen ([2]; 2-day treatment): 96.7% | NK cells in the blood, value in parentheses ([2]; 7-day treatment): 0.3987 ± 0.0706 × 10^6 cells/ml | NK cells in the lymph nodes, value in parentheses ([2]; 7-day treatment): 0.07852 ± 0.03572 × 10^5 cells/ml | NK cells in the spleen, value in parentheses ([2]; 7-day treatment): 4.741 ± 0.8621 × 10^6 cells/ml | decrease of NK cell count in the lymph nodes ([2]; 7-day treatment): 20.8% | elevation of NK cell count in the spleen ([2]; 7-day treatment): 55.7% | increase of average NK cell count in the blood ([2]; 7-day treatment): 52.1% | B cell count in all the organs ([2]; blood, spleen, lymph nodes): not significantly influenced
